Values quoted from earlier work, collected in article PMC9095539 (Clinical Pharmacokinetics, 2022).

Key:
[1] = test system: CYP2B6
[2] = test system: CYP2C19
[3] = test system: CYP2C9
[4] = test system: CYP3A4
[5] = BCS; no reference given

- Contribution to hepatic metabolism [1]: 7%
- Contribution to hepatic metabolism [2]: 53%
- Contribution to hepatic metabolism [3]: 30%
- Contribution to hepatic metabolism [4]: 11%
- Permeability [5]: high
- Eliminated unchanged in urine: 1.0–4.4%
- Time to steady-state plasma concentrations (once-daily dosing): ≤ 4 days
- Time to reach maximum levels (oral, healthy individuals): ≤ 1.5 h
Structure (SMILES): CCCS(=O)(=O)N[C@H]1C[C@@H](N(C)c2ncnc3[nH]ccc23)C1 [abrocitinib, N-{cis-3-[Methyl(7H-pyrrolo[2,3-d]pyrimidin-4-yl)amino]cyclobutyl}propane-1-sulfo namide]
